Experimental data: patent publication US9573930B2 (Quanticel Pharmaceuticals, Inc., priority 2014, dated 2017)

target: full-length human LSD1 (Homo sapiens (Human), UniProt O60341); experiment: In vitro enzyme inhibition assay LSD-1 (TR-FRET); assay type: biochemical; details: H3K4me1-biotin peptide
Procedure: This assay determines the ability of a test compound to inhibit LSD1 demethylase activity.
The enzymatic assay of LSD1 activity is based on Time Resolved-Fluorescence Resonance Energy Transfer (TR-FRET) detection.
The ability of the compounds disclosed herein to inhibit LSD1 activity was quantified and the respective IC50 value was determined.

SMILES | IC50
COc1ccc(-c2c(-c3cccc(C#N)c3)nc(N3CCC(N)CC3)n(C)c2=O)cc1F [Example 118, 3-[2-(4-aminopiperidin-1-yl)-5-(3-fluoro-4-methoxyphenyl)-1-methyl-6-oxopyrimidin-4-yl]benzonitrile] | > 10000 nM
COc1ccc(-c2c(-c3ccccc3C#N)nc(N3CCC(N)CC3)n(C)c2=O)cc1F [Example 119, 2-[2-(4-aminopiperidin-1-yl)-5-(3-fluoro-4-methoxyphenyl)-1-methyl-6-oxopyrimidin-4-yl]benzonitrile] | > 10000 nM
Cn1c(N2CCC(N)CC2)nc(-c2ccc(C#N)c(F)c2)c(C#N)c1=O [Example 121, 2-(4-amino-piperidin-1-yl)-4-(4-cyano-3-fluoro-phenyl)-1-methyl-6-oxo-1,6-dihydro-pyrimidine-5-carbonitrile] | 100 to 1000 nM
COc1ccc(-c2c(-c3ccc(C#N)c(F)c3)nc(N3CCC(N)CC3)[nH]c2=O)cc1 [Example 122, 4-[2-(4-amino-piperidin-1-yl)-5-(4-methoxy-phenyl)-6-oxo-1,6-dihydro-pyrimidin-4-yl]-2-fluoro-benzonitrile] | < 100 nM
